The results in this text go back to US7714134B2, “Compounds and use of tetrahydropyridothiophenes” (4SC AG, priority 2004, dated 2010).

Bounds are passed on as bounds.

In assay [1] the test system is RKO (RKOp27) human colon adenocarcinoma cells. Briefly: Alamar Blue cell viability assay, anti-proliferative/cytotoxic activity, RKO p27 uninduced. The class given is cell-based. The conditions noted are these: RKOp27, 72 h, proliferating cells, absence of the inducer Ponasterone A, 72 hours incubation. Here is the method:
The anti-proliferative/cytotoxic activity of the compounds described herein, can be tested on subdlones of RKO (RKOp27) human colon adenocarcinoma cells (Schmidt et al., Oncogene 19, 2423-2429; 2000) using the Alamar Blue cell viability assay (described in O'Brien et al. Eur J Biochem 267, 5421-5426, 2000). The compounds are dissolved as 20 mM solutions in dimethylsulfoxide (DMSO) and subsequently diluted in semi-logarithmic steps. DMSO dilutions are further diluted 1:100 into Dulbecco's modified Eagle's medium (DMEM) containing 10% fetal calf serum to a final concentration twice as much as the final concentration in the test. RKO subclones are seeded into 96 well flat bottom plates at a density of 4000 cells per well in a volume of 50 µl per well. 24 hours after seeding the 50 μl each of the compound dilutions in DMEM medium are added into each well of the 96 Well plate. Each compound dilution is tested as quadruplicates. Wells containing untreated control cells are filled with 50 μl DMEM medium containing 1% DMSO. The cells are then incubated with the substances for 72 hours at 37° C. in a humidified atmosphere containing 5% carbon dioxide. To determine the viability of the cells, 10 μl of an Alamar Blue solution (Biosource) are added and the fluorescence is measured at an extinction of 544 nm and an emission of 590 nm. For the calculation of the cell viability the emission value from untreated cells is set as 100% viability and the emission rates of treated cells are set in relation to the values of untreated cells. Viabilities are expressed as % values.
The corresponding IC50 values of the compounds for anti-proliferative/cytotoxic activity are determined from the concentration-effect curves.
Representative IC50 values for anti-proliferation/cytotoxicity determined for the compounds mentioned and numbered as Examples in the examples above follow from the following table A (1st column), in which the numbers of the compound correspond to the numbers of the examples. Any or all of the compounds according to the present invention which are listed in the Table A, as well as their salts, are to be mentioned as a particular interesting subject of the present invention.

In assay [2] the test system is RKO colon adenocarcinoma cells (RKOp27) arrested by expression of ectopic p27Kip1. Briefly: Alamar Blue cell viability assay, cell cycle specific mode of action, RKO p27 induced (arrested by Ponasterone A-induced p27Kip1). To be noted: Homo sapiens, RKOp27, 72 h, cells arrested by p27Kip1 induced with 10 μM Ponasterone A, 72 hours incubation. Format: cell-based. Here is the method:
To determine the cell cycle specific mode of action, subdlones of RKO colon adenocarcinoma cells (RKOp27 or RKOp21 as described by Schmidt et al. in Oncogene 19, 2423-2429; 2000) are seeded into 96 well flat bottom plates at a density of 16000 cells per well in a volume of 50 μl per well in DMEM growth medium with 10% FCS containing 10 μM Ponasterone A. 24 hours after seeding the 50 μl each of the compound dilutions in DMEM medium are added into each well of the 96 Well plate. Each compound dilution is tested as quadruplicates. Wells containing untreated control cells are filled with 50 μl DMEM medium containing 1% DMSO. The cells are then incubated with the substances for 72 hours at 37° C. in a humidified atmosphere containing 5% carbon dioxide. To determine the viability of the cells, 10 μl of an Alamar Blue solution (Biosource) are added and the fluorescence was measured at an extinction of 544 nm and an emission of 590 nm. For the calculation of the cell viability the emission value from untreated cells is set as 100% viability and the emission rates of treated cells are set in relation to the values of untreated cells. Viabilities are expressed as % values. Viability is compared of proliferating cells grown in the absence of the inducer Ponasterone A, versus viability of cells arrested by the expression of ectopic p27Kip1 induced by Ponasterone A. The data of this experimental setting are summarized in table A (2nd column).
In general terms: Resazurin is reduced to fluorescent resorufin, in cell work by metabolically active cells.

By IC50 is commonly meant the concentration that inhibits the measured activity by half. As for `N#Cc1c(NC(=O)c2ccccc2)sc2c1CCN(C(=O)OCCc1ccccc1)C2` [Compound 65, 3-Cyano-2-[(1-phenyl-methanoyl)-amino]-4,7-dihydro-5H-thieno[2,3-c]pyridine-6-carboxylic acid phenethyl ester], the IC50 in assay [1] was not above 3 µM; in assay [2], more than 60 µM.

As for `N#Cc1c(NC(=O)c2ccccc2)sc2c1CCN(C(=O)SCCC(=O)O)C2` [Compound 103, 3-(1-{3-Cyano-2-[(1-phenyl-methanoyl)-amino]-4,7-dihydro-5H-thieno[2,3-c]pyridin-6-yl}-methanoylsulfanyl)-propionic acid], the IC50 is not above 3 µM in assay [1] and more than 100 µM in assay [2].

In the case of `CCNC(=O)N1CCc2c(sc(NC(=O)c3ccccc3)c2C#N)C1` [Compound 98, 3-Cyano-2-[(1-phenyl-methanoyl)-amino]-4,7-dihydro-5H-thieno[2,3-c]pyridine-6-carboxylic acid ethylamide], the figures for the IC50 in assay [1] and in assay [2] were not above 3 µM and more than 100 µM, respectively.

For `N#Cc1c(NC(=O)c2ccccc2)sc2c1CCN(C(=O)OCCc1ccncc1)C2` [Compound 73, 3-Cyano-2-[(1-phenyl-methanoyl)-amino]4,7-dihydro-5H-thieno[2,3-c]pyridine-6-carboxylic acid 2-pyridin4-yl-ethyl ester], the IC50 in assay [1] was not above 3 µM; in assay [2], more than 60 µM.

For `N#Cc1c(NC(=O)c2ccccc2)sc2c1CCN(C(=O)CCCc1c[nH]c3ccccc13)C2` [Compound 37, N-[3-Cyano-6-(4-1H-indol-3-yl-butanoyl)-4,5,6,7-tetrahydro-thieno[2,3-c]pyridin-2-yl]-benzamide], the figures for the IC50 in assay [1] and in assay [2] were not above 3 µM and more than 60 µM, respectively.

Consider `N#Cc1c(NC(=O)c2ccccc2)sc2c1CCN(S(=O)(=O)c1ccc(N3CCOCC3)nc1)C2` [Compound 77, N-[3-Cyano-6-(6-morpholin-4-yl-pyridine-3-sulfonyl)-4,5,6,7-tetrahydro-thieno[2,3-c]pyridin-2-yl]-benzamide], for which the half-maximal inhibitory concentration (IC50) was not above 3 µM in assay [1] and more than 60 µM in assay [2].

As for `N#Cc1c(NC(=O)c2ccccc2)sc2c1CCN(C(=O)CCn1cnnc1)C2` [Compound 34, N-[3-Cyano-6-(3-[1,2,4]triazol-4-yl-propanoyl)-4,5,6,7-tetrahvdro-thieno[2,3-c]pyridin-2-yl]-benzamide], the IC50 is not above 3 µM in assay [1] and more than 60 µM in assay [2].

With `N#Cc1c(NC(=O)c2ccccc2)sc2c1CCN(C(=O)NCCc1c[nH]c3ccccc13)C2` [Compound 81, 3-Cyano-2-[(1-phenyl-methanoyl)-amino]-4,7-dihydro-5H-thieno[2,3-c]pyridine-6-carboxylic acid [2-(1H-indol-3-yl)-ethyl]-amide], the IC50 is not above 3 µM in assay [1] and more than 60 µM in assay [2].

As for `CCOC(=O)N1CCc2c(sc(NC(=O)c3cc(OC)cc(OC)c3)c2C#N)C1` [Compound 19, N-(6-Ethoxycarbonyl-3-cyano-4,5,6,7-tetrahydro-thieno[2,3-c]pyridin-2-yl)-3,5-dimethoxybenzamide], the results for the IC50 in assay [1] and in assay [2] were not above 2 µM and more than 100 µM, respectively.

For `N#Cc1c(NC(=O)c2ccccc2)sc2c1CCN(C(=O)CCCc1cccs1)C2` [Compound 28, N-[3-Cyano6-(4-thiophen-2-yl-butanoyl)-4,5,6,7-tetrahydro-thieno[2,3-c]pryridin-2-yl]-benzamide], the results for the half-maximal inhibitory concentration (IC50) in assay [1] and in assay [2] were not above 2 µM and more than 100 µM, respectively.

For the molecule `N#Cc1c(NC(=O)c2ccccc2)sc2c1CCN(C(=O)OCc1ccccc1)C2` [Compound 61, 3-Cyano-2-[(1-phenyl-methanoyl)-amino]-4,7-dihydro-5H-thieno[2,3-c]pyridine-6-carboxylic acid benzyl ester], the IC50 was not above 3 µM in assay [1] and more than 60 µM in assay [2].

On to `N#Cc1c(NC(=O)c2ccccc2)sc2c1CCN(C(=O)OCCc1ccccn1)C2` [Compound 68, 3-Cyano-2-[(1-phenyl-methanoyl)-amino]-4,7-dihydro-5H-thieno[2,3-c]pyridine-6-carboxylic acid 2-pyridin-2-yl-ethyl ester], for which the half-maximal inhibitory concentration (IC50) in assay [1] is not above 3 µM; in assay [2], more than 60 µM.

Consider `CCOC(=O)N1CCc2c(sc(NC(=O)c3cccc(C)c3)c2C#N)C1` [Compound 51, 3-Cyano-2-[(1-m-tolyl-methanoyl)-amino]-4,7-dihydro-5H-thieno[2,3-c]pyridine-6-carboxylic acid ethyl ester], for which the IC50 was not above 3 µM in assay [1] and more than 60 µM in assay [2].

`CC(=O)OCCCC(=O)N1CCc2c(sc(NC(=O)c3ccccc3)c2C#N)C1` [Compound 86, Acetic acid 4-{3-cyano-2-[(1-phenyl-methanoyl)-amino]4,7-dihydro-5H-thieno[2,3-c]pyridin-6-yl}-4-oxo-butyl ester]: the figures for the IC50 in assay [1] and in assay [2] were not above 3 µM and more than 100 µM, respectively.

Turning to `COC(=O)COC(=O)N1CCc2c(sc(NC(=O)c3ccccc3)c2C#N)C1` [Compound 93, 3-Cyano-2-[(1-phenyl-methanoyl)-amino]-4,7-dihydro-5H-thieno[2,3-c]pyridine-6-carboxylic acid methoxycarbonylmethyl ester], the IC50 is not above 3 µM in assay [1] and more than 100 µM in assay [2].

For the molecule `N#Cc1c(NC(=O)c2ccccc2)sc2c1CCN(C(=O)CO)C2` [Compound 87, N-[3-Cyano-6-(2-hydroxy-ethanoyl)-4,5,6,7-tetrahydro-thieno[2,3-c]pyridin-2-yl]-benzamide], the IC50 in assay [1] was not above 3 µM; in assay [2] it was more than 100 µM.

For the molecule `COC(=O)CCSC(=O)N1CCc2c(sc(NC(=O)c3ccccc3)c2C#N)C1` [Compound 102, 3-(1{3-Cyano-2-[(1-phenyl-methanoyl)-amino]-4,7-dihydro-5H-thieno[2,3-c]pyridin-6-yl}-methanoylsulfanyl)-propionic acid methyl ester], the half-inhibitory concentration (IC50) in assay [1] was not above 3 µM; in assay [2] it was more than 100 µM.

In the case of `N#Cc1c(NC(=O)c2ccccc2)sc2c1CCN(C(=O)OCc1ccncc1)C2` [Compound 66, 3-Cyano-2-[(1-phenyl-methanoyl)-amino]-4,7-dihydro-5H-thieno[2,3-c]pyridine-6-carboxylic acid pyridin-4-ylmethyl ester], the IC50 in assay [1] is not above 3 µM; in assay [2], more than 60 µM.

As for `CCOC(=O)N1CCc2c(sc(NC(=O)c3cccc(O)c3)c2C#N)C1` [Compound 53, 3-Cyano-2-{[1-(3-hydroxy-phenyl)-methanoyl]-amino}-4,7-dihydro-5H-thieno[2,3-c]pyridine-6-carboxylic acid ethyl ester], the half-maximal inhibitory concentration (IC50) was not above 3 µM in assay [1] and more than 60 µM in assay [2].

Consider `CCOC(=O)N1CCc2c(sc(NC(=O)c3cccc([N+](=O)[O-])c3)c2C#N)C1` [Compound 45, 3-Cyano-2{[1-(3-nitro-phenyl)-methanoyl]-amino}-4,7-dihydro-5H-thieno[2,3-c]pyridine-6-carboxylic acid ethyl ester], for which the concentration for half-maximal inhibition (IC50) was not above 3 µM in assay [1] and more than 60 µM in assay [2].

Regarding `CCOC(=O)CC(=O)N1CCc2c(sc(NC(=O)c3ccccc3)c2C#N)C1` [Compound 31, 3-{3-Cyano-2-[(1-phenyl-methanoyl)-amino]-4,7-dihydro-5H-thieno[2,3-c]pyridin-6-yl}-3-oxo-propionic acid ethyl ester], the values for the IC50 in assay [1] and in assay [2] were not above 3 µM and more than 60 µM, respectively.

Take `CCCC(=O)N1CCc2c(sc(NC(=O)c3cccc(OC)c3)c2C#N)C1` [Compound 25, N-(6-Butyryl-3-cyano-4,5,6,7-tetrahydro-thieno[2,3-c]pyridin-2-yl)-3-methoxy-benzamide]: the half-maximal inhibitory concentration (IC50) is not above 2 µM in assay [1] and more than 100 µM in assay [2].
